{"source": "patent US20050192308A1", "about": "(priority 2001, published 2005)", "biological_target": "Mu opioid receptor (Homo sapiens, UniProt P35372)", "sequence (P35372 whole entry)": "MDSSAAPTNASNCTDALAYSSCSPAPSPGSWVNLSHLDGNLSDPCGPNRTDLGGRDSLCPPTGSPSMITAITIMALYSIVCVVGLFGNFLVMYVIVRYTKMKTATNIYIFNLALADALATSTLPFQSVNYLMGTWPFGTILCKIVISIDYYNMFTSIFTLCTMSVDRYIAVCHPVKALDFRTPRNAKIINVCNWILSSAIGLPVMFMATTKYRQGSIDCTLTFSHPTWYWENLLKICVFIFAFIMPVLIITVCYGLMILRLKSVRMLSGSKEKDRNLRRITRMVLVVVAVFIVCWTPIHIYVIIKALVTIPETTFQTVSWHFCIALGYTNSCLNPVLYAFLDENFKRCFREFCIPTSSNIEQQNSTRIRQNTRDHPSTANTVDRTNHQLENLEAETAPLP", "data": [{"smiles": "C[C@@H](NC(=O)[C@@H](N)Cc1ccc(O)cc1)C(=O)NCC(=O)N(C)[C@@H](Cc1ccccc1)C(=O)NCCO", "note": "[DAMGO Control, DAMGO]", "values": [{"measurement": "Functional GTPgS Mu Efficacy % DAMGO", "result": "100 ± 0", "unit": "%"}]}]}
